Assay results as given in patent publication US20240238301A1, “COMPOSITIONS AND METHODS FOR REDUCED TOXICITY IN TRANSPLANTATION USING JANUS KINASE (JAK) INHIBITORS” (THE REGENTS OF THE UNIVERSITY OF COLORADO, A BODY CORPORATE, priority 2021, published 2024).

Tests used:
[1] = system: recipient and donor NK and T cells (mouse spleen cells); experiment: Effect on recipient versus donor NK and T cells in spleen after BMT (FACS); type: in vivo, mice; settings: spleen cells after BMT (data not shown)
Procedure: In another exemplary method, BMTs were performed and assessed to determine the effects of JAK inhibitors on recipient compared to donor NK and T cells as outlined in FIG. 6. In this exemplary method, BMTs were performed in mice as described in Example 1 wherein C57BL/6 mice were the transplant donors while Balb/cJ mice served as stem cell recipients. Recipient mice were treated with Ruxolitinib and given RIC TBI followed by BMT as previously described in the examples herein. On Day +1 and Day +3 post-BMT, a portion of the recipient mice were euthanized, and their spleens were harvested. The spleen cells were prepared into a single cell suspension, subjected to RBC lysis, stained (using previously referenced markers in addition to T-cell subset markers, CD4 and CD8) and analyzed by FACS as described in the examples herein.

[2] = system: C57BL/6 recipients and Balb/cJ donors; experiment: MHC-mismatched allogeneic BMT, donor cell engraftment by FACS of peripheral blood (C57BL/6 recipients, Balb/cJ donors); type: in vivo, mice; settings: 6.5 Gy RIC TBI
Procedure: (§1) In one exemplary method, mouse models of human allogeneic bone marrow transplant events were prepared. In brief, major histocompatibility complex (MHC)-mismatched bone marrow transplants (BMTs, HCT)—which model human allogeneic BMTs—were performed in mice. Mice used in this exemplary method were the C57BL/6 mouse strain (which express the MHC marker H2K^b) and the Balb/cJ strain (which express the MHC marker H2K^d). Both mouse strains were maintained by homozygous breeding according to established vivarium practices. Mice approximately 6-10 weeks of age were used for both recipients and donors. Donors and recipients were matched in gender (male recipient mice receive cells from male donors while female recipients receive cells from female donors).
(§2) In another exemplary method, BMT was performed by isolating bone marrow cells from the bones of euthanized donor mice using a method similar to previous methods (Amend et al., J Vis Exp. 2016 Apr. 14; (110):53936). […] Viable cells (which excluded Trypan Blue) were counted using a hematocytometer. […] Stained cells were resuspended in PBS and evaluated via Fluorescent-Activated Cell Sorting (FACS) on a Cytek Aurora cytometer. FACS data was analyzed using FloJo software. […] Cells which were negative for Ter119 (RBCs) and positive for CD45 (hematopoietic cells) were further analyzed. […]

[3] = system: Balb/cJ recipients and C57BL/6 donors; experiment: MHC-mismatched allogeneic BMT, donor cell engraftment by FACS of peripheral blood (Balb/cJ recipients, C57BL/6 donors); type: in vivo, mice; settings: 4 Gy RIC TBI, 90 mg/kg oral gavage twice daily Day -5 through Day +2, 4 weeks post-BMT, n=7
Procedure: as §1, §2

[4] = manufacturer reported; cited from earlier work

SMILES	effect on donor T cells [1]	donor cell engraftment (mice engrafted) ([2]; 180 mg/kg Day -5 through Day +2, 4 weeks post-BMT, n=6)	donor cell engraftment (mice engrafted) ([2]; 270 mg/kg Day -5 through Day +2, 4 weeks post-BMT, n=3)	donor cell engraftment (mice engrafted) [3]	solubility in DMSO [4]
N#CC[C@H](C1CCCC1)n1cc(-c2ncnc3[nH]ccc23)cn1 [ruxolitinib]	no significant effect	100%	100%	100%	–
N#CC[C@H](C1CCCC1)n1cc(-c2ncnc3[nH]ccc23)cn1 [Ruxolitinib phosphate]	–	–	–	–	200 mg/mL
